Measurements as given in BindingDB's records for doi:10.1006/frne.1999.0183 (Royal Victoria Hospital, 1999).
Starred links: 1 amine or outer side, 2 acyl side, 3 side chain; linkers in the order of their positions; H or OH if unused. Non-standard residues stand in square brackets, D forms with d. Residues, ends and D or L forms follow the SMILES beside them. *: point of attachment. pNA = O=[N+]([O-])c1ccc(N*)cc1; Nle = CCCC[CH](N)C(=O)O; CO = O=C([*:1])[*:2]

Experiments:
[1] = target: Somatostatin receptor type 1 (Homo sapiens, UniProt P30872)
[2] = target: Somatostatin receptor type 5 (Homo sapiens, UniProt P35346)
[3] = target: Somatostatin receptor type 2 (Homo sapiens, UniProt P30874)
[4] = target: Somatostatin receptor type 4 (Homo sapiens, UniProt P31391)
[5] = target: Somatostatin receptor type 3 (Homo sapiens, UniProt P32745)
Sequence of Somatostatin receptor type 3 (P32745 whole entry): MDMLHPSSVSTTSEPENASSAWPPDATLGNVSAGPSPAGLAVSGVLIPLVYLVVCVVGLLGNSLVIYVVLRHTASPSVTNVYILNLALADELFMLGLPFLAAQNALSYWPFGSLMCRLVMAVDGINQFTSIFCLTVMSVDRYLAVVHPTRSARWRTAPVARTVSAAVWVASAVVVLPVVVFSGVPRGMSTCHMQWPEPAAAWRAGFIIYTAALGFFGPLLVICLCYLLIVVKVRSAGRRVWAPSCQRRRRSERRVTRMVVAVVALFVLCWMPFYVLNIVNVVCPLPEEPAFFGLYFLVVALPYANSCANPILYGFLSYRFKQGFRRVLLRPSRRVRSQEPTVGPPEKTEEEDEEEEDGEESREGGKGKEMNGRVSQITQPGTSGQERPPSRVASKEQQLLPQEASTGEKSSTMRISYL

Sequence of Somatostatin receptor type 4 (P31391 whole entry): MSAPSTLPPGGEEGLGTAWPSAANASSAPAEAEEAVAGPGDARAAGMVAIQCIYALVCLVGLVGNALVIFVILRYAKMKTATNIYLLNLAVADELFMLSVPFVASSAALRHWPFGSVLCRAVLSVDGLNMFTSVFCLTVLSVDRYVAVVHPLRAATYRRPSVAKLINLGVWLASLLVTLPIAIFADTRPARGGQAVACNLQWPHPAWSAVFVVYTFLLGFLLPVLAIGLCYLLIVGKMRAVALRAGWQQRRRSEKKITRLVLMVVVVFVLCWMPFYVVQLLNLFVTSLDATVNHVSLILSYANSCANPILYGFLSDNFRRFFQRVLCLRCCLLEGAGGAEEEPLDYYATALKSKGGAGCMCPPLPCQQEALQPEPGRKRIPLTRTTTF
Sequence of Somatostatin receptor type 2 (P30874 whole entry): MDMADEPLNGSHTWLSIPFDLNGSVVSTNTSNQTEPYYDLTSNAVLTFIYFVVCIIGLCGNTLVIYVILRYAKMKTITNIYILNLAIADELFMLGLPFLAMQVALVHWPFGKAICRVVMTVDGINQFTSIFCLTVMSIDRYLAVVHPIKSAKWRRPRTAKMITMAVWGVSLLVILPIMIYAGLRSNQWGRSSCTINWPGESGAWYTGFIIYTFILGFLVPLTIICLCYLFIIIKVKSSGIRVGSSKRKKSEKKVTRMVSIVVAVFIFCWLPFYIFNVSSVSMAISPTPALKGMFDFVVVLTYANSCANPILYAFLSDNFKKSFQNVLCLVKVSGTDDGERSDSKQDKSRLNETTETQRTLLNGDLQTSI
Sequence of Somatostatin receptor type 1 (P30872 whole entry): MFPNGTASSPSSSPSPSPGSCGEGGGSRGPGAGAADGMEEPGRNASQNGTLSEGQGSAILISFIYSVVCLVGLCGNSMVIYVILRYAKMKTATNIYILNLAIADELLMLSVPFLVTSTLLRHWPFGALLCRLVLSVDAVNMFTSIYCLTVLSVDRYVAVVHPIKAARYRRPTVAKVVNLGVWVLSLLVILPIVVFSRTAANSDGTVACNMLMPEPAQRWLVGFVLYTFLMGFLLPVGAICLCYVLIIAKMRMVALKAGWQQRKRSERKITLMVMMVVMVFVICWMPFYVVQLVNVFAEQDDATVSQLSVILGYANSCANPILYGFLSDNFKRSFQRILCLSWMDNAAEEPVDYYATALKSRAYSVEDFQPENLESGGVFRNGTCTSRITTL
Sequence of Somatostatin receptor type 5 (P35346 whole entry): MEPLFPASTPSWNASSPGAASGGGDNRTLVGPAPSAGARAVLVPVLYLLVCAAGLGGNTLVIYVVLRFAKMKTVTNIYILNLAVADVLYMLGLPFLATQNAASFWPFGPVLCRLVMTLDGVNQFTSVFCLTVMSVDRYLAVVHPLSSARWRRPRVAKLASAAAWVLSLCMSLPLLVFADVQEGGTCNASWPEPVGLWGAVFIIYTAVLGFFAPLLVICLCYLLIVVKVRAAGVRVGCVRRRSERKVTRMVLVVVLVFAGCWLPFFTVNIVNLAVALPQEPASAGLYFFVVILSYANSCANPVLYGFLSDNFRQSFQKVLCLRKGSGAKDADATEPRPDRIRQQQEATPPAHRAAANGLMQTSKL

Row | Ki [1] [nM] | Ki [2] [nM] | Ki [3] [nM] | Ki [4] [nM] | Ki [5] [nM] | Structure (SMILES)
1 | 1.4 | 3600 | 1870 | 170 | 2240 | CC(CCN)CC(C)(C)CNC(=O)[C@@H](Cc1cccc2ccccc12)NC(=O)N(CCc1ccccc1)CCc1ccccn1 (stereo partly drawn) [L-797591]
2 | 199 | 3880 | 4720 | 0.7 | 1280 | COC(=O)C(CCCNC(=N)N)NC(=O)CCCc1c(-c2ccccc2)[nH]c2c(F)cc(F)cc12 [L-803,087]

More lines, now with the values behind:

Row | Structure (SMILES) | Ki [1] [nM] | Ki [2] [nM] | Ki [3] [nM] | Ki [4] [nM] | Ki [5] [nM]
3 | CC(C)[C@@H]1NC(=O)[C@H](CCCCN)NC(=O)[C@@H](Cc2c[nH]c3ccccc23)NC(=O)[C@H](Cc2ccc(O)cc2)NC(=O)[C@H](C)N(C)C(=O)[C@H](Cc2ccccc2)NC1=O [seglitide] | 1000 | – | – | – | 27
4 | CSCC[C@H](NC(=O)[C@H](CCCN=C(N)N)NC(=O)[C@@H](N)CC(=O)O)C(=O)N1CCC[C@H]1C(=O)N[C@H]1CSSC[C@@H](C(=O)N[C@@H](CCCCN)C(=O)O)NC(=O)[C@H](CO)NC(=O)[C@H](CO)NC(=O)[C@H](Cc2ccccc2)NC(=O)[C@H]([C@@H](C)O)NC(=O)[C@H](CCCCN)NC(=O)[C@H](Cc2c[nH]c3ccccc23)NC(=O)[C@H](Cc2ccccc2)NC(=O)[C@H](Cc2ccccc2)NC(=O)[C@H](CC(N)=O)NC(=O)[C@H](CCCN=C(N)N)NC1=O [Cortistatin] | 7 | 0.4 | 0.6 | 0.5 | 0.6
5 | CC(c1c[nH]c2ccccc12)C(NC(=O)N1CCC(n2c(=O)[nH]c3ccccc32)CC1)C(=O)NCC1CCCC(CN)C1 (stereo unspecified) [CAS_5311372] | 2760 | 4260 | 0.05 | 310 | 729
6 | C[C@H](N)COC(=O)[C@H](CCCCN)NC(=O)Cc1c(-c2ccc3ccccc3c2)[nH]c2c1ccc1ccccc12 | 3.3 | 0.4 | 52 | 82 | 64
7 | CC(C)NCc1ccc(C[C@@H]2NC(=O)[C@@H](Cc3c[nH]c4ccccc34)NC(=O)[C@H](Cc3ccccc3)NC(=O)[C@H](Cc3ccccc3)NC(=O)[C@H](CCCCN)NC(=O)[C@@H](N)CSSC[C@@H](C(=O)O)NC(=O)[C@H](CO)NC(=O)[C@H]([C@@H](C)O)NC(=O)[C@H](Cc3ccccc3)NC(=O)[C@H]([C@@H](C)O)NC2=O)cc1 [CH-275] (HELM PEPTIDE1{C.K.F.F.[dW].[CC(C)NCc1ccc(C[C@H](N[*:1])C(=O)[*:2])cc1].T.F.T.S.C}$PEPTIDE1,PEPTIDE1,1:R3-11:R3$$$V2.0) | 3.2 | 1000 | – | 4.3 | 1000
8 | CCCCC(NC(=O)NC(Cc1ccccc1)C(=O)Nc1ccc([N+](=O)[O-])cc1)C(=O)NC(CCCCN)C(=O)OC (stereo unspecified) [CAS_5311373] ({pNA-Phe-CO}-[Nle]-Lys-OMe; configuration not given here) | 1260 | 1200 | > 10000 | 8650 | 24
